The subject of data set [1] is A549 transfected with human cytochrome P450 reductase (P450R). As to the kind of experiment: Cytotoxicity in oxic and anoxic A549 cells transfected with human cytochrome P450 reductase. The format is cell-based. As to conditions: 4 h exposure; for pIC50: anoxic.
In the next data set the test system is SC3.2. Description: Cytotoxicity in NTR-transfected (NR+) human ovarian cell line SC3.2. The note with it: for pIC50: SC3.2 NTR-transfected, 18 h exposure; for Ratio = IC50(NR−)/IC50(NR+) Human Ovarian: SKOV3 / SC3.2, 18 h exposure. The format is cell-based.
In a further data set the test system is WC14.10. As to the kind of experiment: Cytotoxicity in NTR-transfected (NR+) human colon cell line WC14.10. The data set is classed as cell-based. As to conditions: for pIC50: WC14.10 NTR-transfected.
Another data set concerns SKOV3. As to the kind of experiment: Cytotoxicity in wild-type (NR−) human ovarian cell line SKOV3. The data set is classed as cell-based.
Another data set concerns WIDR. As to the kind of experiment: Cytotoxicity in wild-type (NR−) human colon cell line WIDR. The format is cell-based.
Data set [2] has as its system A549 human lung carcinoma cells. As to the kind of experiment: Cytotoxicity in oxic and anoxic wild-type A549 human lung carcinoma cells. The format is cell-based. As to conditions: 4 h exposure; for pIC50: anoxic, read-out: IC50 WT anoxic.
The conditions of data set [3]: Friedlos et al., J. Med. Chem. 1997, 40, 1270; cited from earlier work.

SMILES strings stand for the structures. pIC50: −log10 of the molar value. Marks after values point to notes of the source that are not given here.

Usually pIC50 stands for the IC50 on a negative log10 scale, so that one unit is a factor of ten. `CS(=O)(=O)OCCN(CCBr)c1cc(C(=O)NCCO)c([N+](=O)[O-])cc1[N+](=O)[O-]` [IIa5, 2-((2-Bromoethyl)5-{[(2-hydroxyethyl)amino]carbonyl}-2,4-dinitroanilino)ethyl methanesulfonate]: the “P450R ratio = IC50(aerobic)/IC50(anoxic)” value in data set [1] was found to be 9.9. For the same compound, the pIC50 in data set [1] is 4.14; in the data set with SC3.2 it was 6.21; in the data set with WC14.10 (18 h exposure) it was 6.11; in the data set on SKOV3 (18 h exposure) it was 3.54; in the data set on WIDR (18 h exposure), 3.72; in data set [2], 3.86. Besides, the “Ratio = IC50(NR−)/IC50(NR+) Human Ovarian” value with SC3.2 was 470. In addition, the “Ratio = IC50(NR−)/IC50(NR+) Human colon” value in the data set on WC14.10 (WIDR / WC14.10, 18 h exposure) is 250. Further, the “WT Ratio = IC50(aerobic)/IC50(anoxic)” value in data set [2] came out at 5.2.

For the compound `CS(=O)(=O)OCCN(CCBr)c1c(C(=O)NCCO)cc([N+](=O)[O-])cc1[N+](=O)[O-]` [IIb3, 2-((2-Bromoethyl)-2-{[(2-hydroxyethyl)amino]carbonyl}-4,6-dinitroanilino)ethyl methanesulfonate], in data set [1], the “P450R ratio = IC50(aerobic)/IC50(anoxic)” value is listed as 133. Moreover, the negative-log IC50 (pIC50) in data set [1] is 6.55; in the data set with SC3.2 it was 7.40; in the data set with WC14.10 (18 h exposure), 7.22; with SKOV3 (18 h exposure), 5.28; with WIDR (18 h exposure) it was 5.43; in data set [2], 5.64. In addition, the “Ratio = IC50(NR−)/IC50(NR+) Human Ovarian” value in the data set with SC3.2 is reported as 142. Also, the “Ratio = IC50(NR−)/IC50(NR+) Human colon” value in the data set with WC14.10 (WIDR / WC14.10, 18 h exposure) was 66. The “WT Ratio = IC50(aerobic)/IC50(anoxic)” value in data set [2] was 26.

Regarding `CC(O)CNC(=O)c1cc([N+](=O)[O-])cc([N+](=O)[O-])c1N(CCBr)CCOS(C)(=O)=O` (centres unmarked) [IIb5, 2-((2-Bromoethyl)-2-{[(2-hydroxypropyl)amino]carbonyl}-4,6-dinitroanilino)ethyl methanesulfonate], the “P450R ratio = IC50(aerobic)/IC50(anoxic)” value in data set [1] is listed as 150. For the same compound, the pIC50 was 6.47 in data set [1], 6.60 in the data set with WC14.10 (4 h exposure), 5.54 with WIDR (4 h exposure) and 5.40 in data set [2]. Besides, the “Ratio = IC50(NR−)/IC50(NR+) Human colon” value with WC14.10 (WIDR / WC14.10, 4 h exposure) is reported as 12^f. In data set [2], the “WT Ratio = IC50(aerobic)/IC50(anoxic)” value was 19.

What is called melting point is the temperature, or range, at which the solid turns liquid. `COC(=O)CCNC(=O)c1cc([N+](=O)[O-])cc([N+](=O)[O-])c1N(CCCl)CCOS(C)(=O)=O` [IIb8, Methyl 3-{[2-((2-chloroethyl){2-[(methylsulfonyl)oxy]ethyl}amino)-3,5-dinitrobenzoyl]amino}propanoate] returned a melting point of 128 to 130 °C. Further, in the data set with SC3.2 (Homo sapiens), the pIC50 is 6.72. Besides, in the data set on SC3.2, the “Ratio = IC50(NR−)/IC50(NR+) Human Ovarian” value was 51. Moreover, in the data set on WC14.10 (Homo sapiens, 18 h exposure), the negative logarithm of the IC50 (pIC50) was 6.44. For the same compound, the “Ratio = IC50(NR−)/IC50(NR+) Human colon” value with WC14.10 (WIDR / WC14.10, 18 h exposure) amounted to 13. Further, the pIC50 in the data set with SKOV3 (Homo sapiens, SK-OV-3, 18 h exposure) is 5.01. The compound also had a negative logarithm of the IC50 (pIC50) in the data set on WIDR (Homo sapiens, 18 h exposure) of 5.37.

Take `CS(=O)(=O)OCCN(CCBr)c1c([N+](=O)[O-])ccc(C(=O)NCCO)c1[N+](=O)[O-]` [IIc3, 2-((2-Bromoethyl)-3-{[(2-hydroxyethyl)amino]carbonyl}-2,6-dinitroanilino)ethyl methanesulfonate]: the “P450R ratio = IC50(aerobic)/IC50(anoxic)” value in data set [1] is 146. Besides, the pIC50 in data set [1] was 5.54; in the data set on WC14.10 (4 h exposure) it was 5.29; with WIDR (4 h exposure), 3.37; in data set [2] it was 4.55. The “Ratio = IC50(NR−)/IC50(NR+) Human colon” value with WC14.10 (WIDR / WC14.10, 4 h exposure) is given as 83^f. Further, in data set [2], the “WT Ratio = IC50(aerobic)/IC50(anoxic)” value is given as 20.

Take `CS(=O)(=O)OCCN(CCCl)c1ccc([N+](=O)[O-])c(C(=O)NCCCO)c1[N+](=O)[O-]` [IIc4, 2-((2-Chloroethyl)-3-{[(3-hydroxypropyl)amino]carbonyl}-2,4-dinitroanilino)ethyl methanesulfonate]: the “P450R ratio = IC50(aerobic)/IC50(anoxic)” value in data set [1] was 108. In addition, the pIC50 in data set [1] is 5.14; in the data set on SC3.2 it was 5.80; with WC14.10 (18 h exposure) it was 5.59; in the data set on SKOV3 (18 h exposure), 3.10; in the data set on WIDR (18 h exposure) it was 3.41; in data set [2], 4.09. Also, the “Ratio = IC50(NR−)/IC50(NR+) Human Ovarian” value with SC3.2 was found to be 549. Moreover, the “Ratio = IC50(NR−)/IC50(NR+) Human colon” value in the data set with WC14.10 (WIDR / WC14.10, 18 h exposure) came to 215. Also, in data set [2], the “WT Ratio = IC50(aerobic)/IC50(anoxic)” value worked out at 26.

As to `CS(=O)(=O)OCCN(CCBr)c1c([N+](=O)[O-])ccc(C(=O)NCCCO)c1[N+](=O)[O-]` [IIc5, 2-((2-Bromoethyl)-3-{[(3-hydroxypropyl)amino]carbonyl}-2,6-dinitroanilino)ethyl methanesulfonate], in data set [1], the “P450R ratio = IC50(aerobic)/IC50(anoxic)” value was found to be 134. The negative logarithm of the IC50 (pIC50) in data set [1] was 5.35; with SC3.2 it was 6.24; with WC14.10 (18 h exposure) it was 6.07; in the data set on SKOV3 (18 h exposure), 3.55; in the data set with WIDR (18 h exposure), 3.68; in data set [2], 4.28. In addition, the “Ratio = IC50(NR−)/IC50(NR+) Human Ovarian” value in the data set on SC3.2 is on record as 497. For the same compound, the “Ratio = IC50(NR−)/IC50(NR+) Human colon” value in the data set with WC14.10 (WIDR / WC14.10, 18 h exposure) is on record as 301. Besides, the “WT Ratio = IC50(aerobic)/IC50(anoxic)” value in data set [2] is listed as 30.

With `CS(=O)(=O)OCCN(CCCl)c1cc(C(N)=O)c([N+](=O)[O-])cc1[N+](=O)[O-]` [No 5, 2-[5-(aminocarbonyl)(2-chloroethyl)-2,4-dinitroanilino]ethyl methanesulfonate], the “potency as described in the literature” value in data set [3] is listed as “not sufficiently potent for a full biological evaluation to be conducted”.

Source of the values: patent publication US7776924B2, “Nitroaniline-based alkylating agents and their use as prodrugs” (Auckland Uniservices Limited, priority 2002, dated 2010).
